Data: ChEMBL document CHEMBL1201862, “PubChem BioAssay data set” (2004)
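Method: 48-hour compound exposure of cells in 96-well plates, five concentrations, linear interpolation of endpoints. GI50: concentration for 50% inhibition of growth.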 The source made the active and inactive calls. Cut-off read from the data, not from the text of the source: active = GI50 up to about 1.1 µM and inactive = higher.

Experiments:
Assay in all cases: NCI anticancer screen, dose series, 48 h
Hs-578T = system: Hs-578T
OVCAR-4 = system: OVCAR-4
UO-31 = system: UO-31
SF-268 = system: SF-268
MCF7 = system: MCF7
RXF 393 = system: RXF 393
IGROV-1 = system: IGROV-1
BT-549 = system: BT-549
786-0 = system: 786-0
RPMI-8226 = system: RPMI-8226
UACC-62 = system: UACC-62
HCT-15 = system: HCT-15
OVCAR-5 = system: OVCAR-5
HT-29 = system: HT-29
SR = system: SR
SK-MEL-2 = system: SK-MEL-2
SK-MEL-5 = system: SK-MEL-5
MDA-MB-231 = system: MDA-MB-231
TK-10 = system: TK-10
PC-3 = system: PC-3

Row | SMILES | GI50 (Hs-578T) | GI50 (OVCAR-4) | GI50 (UO-31) | GI50 (SF-268) | GI50 (MCF7) | GI50 (RXF 393) | GI50 (IGROV-1) | GI50 (BT-549) | GI50 (786-0) | GI50 (RPMI-8226) | GI50 (UACC-62) | GI50 (HCT-15) | GI50 (OVCAR-5) | GI50 (HT-29) | GI50 (SR) | GI50 (SK-MEL-2) | GI50 (SK-MEL-5) | GI50 (MDA-MB-231) | GI50 (TK-10) | GI50 (PC-3)
1 | Cc1cc(C)nc(NS(=O)(=O)c2ccc(Nc3nnc(/C=C/c4c(O)ccc5ccccc45)c(=O)n3N)cc2)n1 | 79.4 µM (inactive) | 22.5 µM (inactive) | 26 µM (inactive) | 33.7 µM (inactive) | 17.7 µM (inactive) | 18.6 µM (inactive) | 27.9 µM (inactive) | 32.7 µM (inactive) | 28.6 µM (inactive) | 30.1 µM (inactive) | 29 µM (inactive) | 10.9 µM | 39.3 µM (inactive) | 57.8 µM (inactive) | 18.8 µM (inactive) |  |  |  |  | 
2 | O=C(NC1(C(=O)NNc2nnc(-c3ccccc3)c(-c3ccccc3)n2)C(c2ccccc2)C(c2ccccc2)=NN1c1ccccc1)c1ccccc1 (stereo unspecified) | > 100 µM (inactive) | > 100 µM (inactive) | 41.4 µM (inactive) | > 100 µM (inactive) |  | 22.6 µM (inactive) |  | > 100 µM (inactive) | > 100 µM (inactive) |  | > 100 µM (inactive) | > 100 µM | > 100 µM (inactive) | > 100 µM (inactive) | > 100 µM (inactive) | > 100 µM (inactive) | > 100 µM (inactive) | > 100 µM (inactive) | > 100 µM (inactive) | > 100 µM (inactive)
3 | COc1ccc(/C=C2\C[C@H]3[C@@H]4CCC5=CC(=O)CC[C@]5(C)[C@H]4CC[C@]3(C)C2=O)cc1OC | 45.8 µM (inactive) | 13.2 µM (inactive) | 2.42 µM (inactive) | > 100 µM (inactive) | 4.67 µM (inactive) | 18 µM (inactive) | 10.4 µM (inactive) | 6.34 µM (inactive) | 35.8 µM (inactive) | 3.89 µM (inactive) | 6.24 µM (inactive) | 9.25 µM | 32.4 µM (inactive) | 6.87 µM (inactive) | 2.81 µM (inactive) | 4.13 µM (inactive) | 2.46 µM (inactive) |  |  | 5.51 µM (inactive)
4 | Clc1ccc(-c2nc3ccc4ccccc4c3c3c2CCCC3)cc1 | > 100 µM (inactive) |  | > 100 µM (inactive) | > 100 µM (inactive) | > 100 µM (inactive) | > 100 µM (inactive) | > 100 µM (inactive) | > 100 µM (inactive) | 75.2 µM (inactive) | > 100 µM (inactive) | > 100 µM (inactive) | 62.8 µM | 1.55 µM (inactive) | 44.6 µM (inactive) |  | > 100 µM (inactive) | > 100 µM (inactive) | > 100 µM (inactive) | > 100 µM (inactive) | 
5 | CN(C)c1ccc(-c2c(C#N)c(S)n(NS(=O)(=O)c3ccccc3)c(=O)c2C#N)cc1 |  | 25.6 µM (inactive) | 25.5 µM (inactive) |  | 24.2 µM (inactive) | 20.4 µM (inactive) | 15.8 µM (inactive) | 21.1 µM (inactive) | 17.1 µM (inactive) | 13.9 µM (inactive) | 20.5 µM (inactive) | 20.5 µM | 55.6 µM (inactive) |  | 10 µM (inactive) | 35.9 µM (inactive) | 19.8 µM (inactive) | 22.3 µM (inactive) | 19 µM (inactive) | 21.1 µM (inactive)
6 | N=C(N)N/N=C/c1c(-c2ccc(Cl)cc2)nc2sc(Cl)cn12 | 1.85 µM (inactive) | 1.02 µM (active) | 1.68 µM (inactive) | 1.7 µM (inactive) | 1.53 µM (inactive) |  | 0.755 µM (active) | 1.27 µM (inactive) | 1.58 µM (inactive) |  | 1.78 µM (inactive) | 1.36 µM | 1.67 µM (inactive) | 0.646 µM (active) |  | 1.71 µM (inactive) | 1.62 µM (inactive) | 1.82 µM (inactive) | 1.72 µM (inactive) | 3 µM (inactive)
7 | Cc1ccc(C)c2c1CC(Cc1ccccc1C(=O)O)C2=O (stereo unspecified) | > 100 µM (inactive) | > 100 µM (inactive) | > 100 µM (inactive) | > 100 µM (inactive) | > 100 µM (inactive) | 83.2 µM (inactive) | > 100 µM (inactive) | > 100 µM (inactive) | > 100 µM (inactive) |  | > 100 µM (inactive) | > 100 µM | > 100 µM (inactive) | > 100 µM (inactive) |  | > 100 µM (inactive) | > 100 µM (inactive) | > 100 µM (inactive) | > 100 µM (inactive) | > 100 µM (inactive)
8 | [N-]=[N+]=CC(=O)OCC1SCCCS1 |  | > 100 µM (inactive) | > 100 µM (inactive) | > 100 µM (inactive) | > 100 µM (inactive) | > 100 µM (inactive) | > 100 µM (inactive) | > 100 µM (inactive) | > 100 µM (inactive) | > 100 µM (inactive) | > 100 µM (inactive) | > 100 µM | > 100 µM (inactive) | > 100 µM (inactive) | > 100 µM (inactive) | > 100 µM (inactive) | > 100 µM (inactive) | > 100 µM (inactive) | > 100 µM (inactive) | > 100 µM (inactive)
9 | O=C(NC(CO)Cc1ccc(Oc2cc(CC(CO)NC(=O)OCc3ccccc3)ccc2OC(=O)OCc2ccccc2)cc1)OCc1ccccc1 (stereo unspecified) | 5.97 µM (inactive) | 18.8 µM (inactive) | 18.2 µM (inactive) | 23.5 µM (inactive) | 11.8 µM (inactive) |  | 20.3 µM (inactive) | 11.7 µM (inactive) | 25.1 µM (inactive) | 2.94 µM (inactive) |  | 24.9 µM | 24.4 µM (inactive) | 14.2 µM (inactive) | 4.19 µM (inactive) | 19.3 µM (inactive) |  |  | 20.7 µM (inactive) | 11.4 µM (inactive)
10 | Nc1nc(Nc2cc(F)c(Cl)c(F)c2)cc(=O)[nH]1 | 18.1 µM (inactive) | > 100 µM (inactive) |  | 74.5 µM (inactive) | 75.9 µM (inactive) |  | > 100 µM (inactive) | 60.3 µM (inactive) | 76.4 µM (inactive) | 56.4 µM (inactive) | 68.9 µM (inactive) | > 100 µM | > 100 µM (inactive) | > 100 µM (inactive) |  | 71.4 µM (inactive) | 53.5 µM (inactive) | 68.2 µM (inactive) | > 100 µM (inactive) | > 100 µM (inactive)
11 | Nc1nc(N)nc(-c2cnccn2)n1 |  |  | > 100 µM (inactive) | > 100 µM (inactive) | > 100 µM (inactive) | > 100 µM (inactive) | > 100 µM (inactive) | > 100 µM (inactive) | > 100 µM (inactive) |  | > 100 µM (inactive) | > 100 µM | 57.1 µM (inactive) |  | > 100 µM (inactive) | > 100 µM (inactive) |  | 53 µM (inactive) | > 100 µM (inactive) | > 100 µM (inactive)
12 | COC(=O)c1ccccc1C1CN=NC12Cc1cc(C)c(C)cc1C2=O (stereo unspecified) | 45.5 µM (inactive) | 29.6 µM (inactive) | 30.3 µM (inactive) | 28.9 µM (inactive) | 24.4 µM (inactive) | 66.2 µM (inactive) | 55.2 µM (inactive) | 65.9 µM (inactive) | 63.1 µM (inactive) |  | 53 µM (inactive) | 32.7 µM | > 100 µM (inactive) | 29.4 µM (inactive) |  | 49.7 µM (inactive) | 18.7 µM (inactive) | 27.2 µM (inactive) | 25.8 µM (inactive) | 32.1 µM (inactive)
13 | CC1(C)OCC(C2CCC3(C)C4=CCC5C(C)(C)C(O)CCC5(C)C4CCC23C)CC(O)C1O (stereo unspecified) | 19.9 µM (inactive) | 14.1 µM (inactive) | 16.7 µM (inactive) | 18.3 µM (inactive) | 20.7 µM (inactive) |  | 18.7 µM (inactive) | 15.9 µM (inactive) | 13.4 µM (inactive) | 6.75 µM (inactive) | 14.5 µM (inactive) | 15.8 µM | 19.1 µM (inactive) | 18.2 µM (inactive) |  | 16.3 µM (inactive) | 15.1 µM (inactive) | 18.1 µM (inactive) | 13.6 µM (inactive) | 11.3 µM (inactive)
14 | CC1CNC(NS(=O)(=O)c2cc(C(=O)Nc3ccc(Cl)cc3)c(Cl)cc2S)=NN1 (stereo unspecified) |  | 28.6 µM (inactive) | 49.7 µM (inactive) | 11.5 µM (inactive) | 45 µM (inactive) |  | 36.1 µM (inactive) | 53.7 µM (inactive) | 42.1 µM (inactive) | 28.9 µM (inactive) | 29.2 µM (inactive) | 20.8 µM | 38.5 µM (inactive) | 36.3 µM (inactive) | 27.2 µM (inactive) | 28.9 µM (inactive) | 14.1 µM (inactive) | 37.8 µM (inactive) | 81.7 µM (inactive) | 30 µM (inactive)
15 | O=C1CCCC2=C1C(c1ccc3c(c1)OCO3)Nc1ccc3ccccc3c12 (stereo unspecified) | 41.3 µM (inactive) |  | > 100 µM (inactive) | > 100 µM (inactive) | > 100 µM (inactive) | > 100 µM (inactive) | > 100 µM (inactive) | > 100 µM (inactive) | > 100 µM (inactive) | > 100 µM (inactive) | > 100 µM (inactive) | > 100 µM | > 100 µM (inactive) | > 100 µM (inactive) |  | > 100 µM (inactive) | 93.5 µM (inactive) | > 100 µM (inactive) | > 100 µM (inactive) | 
16 | CCOP(=O)(OCC)C1=C(c2ccccc2)OC(N)=C(C#N)C1c1ccc(Cl)cc1 (stereo unspecified) |  | > 100 µM (inactive) | > 100 µM (inactive) | 38.1 µM (inactive) | > 100 µM (inactive) | > 100 µM (inactive) | > 100 µM (inactive) | > 100 µM (inactive) | > 100 µM (inactive) | > 100 µM (inactive) | > 100 µM (inactive) | > 100 µM | > 100 µM (inactive) | > 100 µM (inactive) | > 100 µM (inactive) | > 100 µM (inactive) | > 100 µM (inactive) | > 100 µM (inactive) | > 100 µM (inactive) | > 100 µM (inactive)
